Source: article PMC11130353, “Using host-mimicking conditions and a murine cutaneous abscess model to identify synergistic antibiotic combinations effective against Pseudomonas aeruginosa” (Frontiers in Cellular and Infection Microbiology, 2024)
In brackets after ≈: the same amount, converted by molar mass. Entries after “also recorded” stand apart in the source; their conditions may differ. Like-named read-outs stand apart in the source and are kept apart here.

What was measured:
[1] = Description: Mice used in this study were female Swiss Webster aged approximately 6-7 weeks and sourced from the University of Otago Biomedical Research Facility. […] Briefly, the fur on the back of each mouse was removed by shaving and chemical depilation. Antibiotics were tested for skin toxicity by injecting 50 μL of antibiotic suspension subcutaneously into naïve mice, and subsequent inspection of the skin for inflammation on the next day. P. aeruginosa LESB58 was grown to mid-log phase in dYT broth, washed twice in sterile PBS (Gibco, pH 7.4), and resuspended in PBS to ~1 x 10^8 CFU per 50 μL inoculum. The bacterial suspension (50 μL) was injected subcutaneously into the right side of the dorsum, followed one hour later by 50 μL of antibiotic treatment injected directly into the infected area. […] Combination treatments were administered as a single 50 μL injection containing both antibiotics. The concentration of each antibiotic in the combination was the same as when it was used alone. Progression of the infection was monitored daily, and abscess dimensions were measured on day three using a calliper. On day three, abscess tissue and pus were excised, homogenized in sterile PBS using SPEX SamplePrep 1600 MiniG for five minutes and bacterial CFU counts determined by serial dilution.
P. aeruginosa PAO1 = experiment: Minimum inhibitory concentration, broth microdilution; format: cell-based, Pseudomonas aeruginosa; conditions: for Fold change TCM vs MHB (MIC): MIC in TCM vs MIC in MHB; for MIC: Pseudomonas aeruginosa, PAO1
Description: (§1) For susceptibility testing under standard conditions, bacteria were cultured in Muller Hinton Broth MHB (Fort Richards Laboratories). […] Further susceptibility testing was also conducted in MHB supplemented with FBS (5% v/v) and DMEM supplemented with glucose (1% w/v) and MHB (10% v/v).
The minimum inhibitory concentration (MIC) of each antibiotic was determined using the broth microdilution method in 96-well plates. […] Briefly, antibiotics were two-fold serially diluted in MHB or TCM prior to adding 1 × 10^6 CFU mL^-1 bacteria. Plates were incubated at 37°C for 22-24 hours. The MIC was recorded as the lowest antibiotic concentration with no visible growth and the median value of at least three biological replicates reported.

P. aeruginosa LESB58 [2] = experiment: microbe, parasite or virus in culture; format: cell-based, Pseudomonas aeruginosa; conditions: for Fold change TCM vs MHB (MIC): MIC in TCM vs MIC in MHB; for MIC: Pseudomonas aeruginosa
Description: as §1
The minimum inhibitory concentration (MIC) of each antibiotic was determined using the broth microdilution method in 96-well plates. […] Briefly, antibiotics were two-fold serially diluted in MHB or TCM prior to adding 1 × 10^6 CFU mL^-1 bacteria. […] The MIC was recorded as the lowest antibiotic concentration with no visible growth and the median value of at least three biological replicates reported.

P. aeruginosa LESB58 [3] = experiment: In vitro synergy, checkerboard assay; format: cell-based, Pseudomonas aeruginosa; conditions: MHB; for FICI, drug combined with CAZ / FICI, drug combined with CZA: FICI <= 0.5 indicates synergy
Description: (§2) For susceptibility testing under standard conditions, bacteria were cultured in Muller Hinton Broth MHB (Fort Richards Laboratories). Host mimicking conditions in vitro were simulated using tissue culture medium (TCM) consisting of Dulbecco’s modified Eagle medium (DMEM; Gibco #11965) supplemented with FBS (Moregate Biotech) (5% v/v) and glucose (1% w/v). Further susceptibility testing was also conducted in MHB supplemented with FBS (5% v/v) and DMEM supplemented with glucose (1% w/v) and MHB (10% v/v).
(§3) The P. aeruginosa LESB58.lux strain was used for in vitro synergy experiments with azithromycin in MHB and all antibiotic combinations in TCM to determine bacterial growth (as visual inspection and absorbance measurements were unreliable). Synergy was determined using the checkerboard method ([Berenbaum, 1978]; [Pletzer and Hancock, 2018]) in at least triplicate. Each antibiotic was two-fold serially diluted in sterile water before transferring to a 96-well plate containing 1 × 10^6 CFU mL^-1 bacteria in MHB or TCM. Plates were incubated at 37°C for 22-24 hours. The MIC alone or in combination was recorded as the lowest antibiotic concentration with no visible growth. For experiments using the LESB58.lux strain no visible growth was defined as an at least 95% reduction compared to the no antibiotic growth control in luminescence detected using a ClarioStar plate reader. The fractional inhibitory concentration index (FICI) was calculated as [(MICA in combination)/MICA] + [(MICB in combination)/MICB]. FICI values of 0.5 or below indicated synergy, while values above 0.5 up to and including 1 were taken to indicate additivity. FICI values above 1 indicate indifference or antagonism ([Odds, 2003]).

P. aeruginosa LESB58-lux = experiment: In vitro synergy, checkerboard assay (luminescence readout); format: cell-based, Pseudomonas aeruginosa; conditions: TCM; for FICI, drug combined with CAZ / FICI, drug combined with CZA: FICI <= 0.5 indicates synergy
Description: as §2, §3

P. aeruginosa LESB58 [4] = experiment: Murine high density subcutaneous skin abscess model; format: in vivo, Pseudomonas aeruginosa; conditions: Colistin
Description: Mice used in this study were female Swiss Webster aged approximately 6-7 weeks and sourced from the University of Otago Biomedical Research Facility. […] The subcutaneous abscess infection model was performed as previously described ([Pletzer et al., 2017]) with a higher inoculum. Briefly, the fur on the back of each mouse was removed by shaving and chemical depilation. Antibiotics were tested for skin toxicity by injecting 50 μL of antibiotic suspension subcutaneously into naïve mice, and subsequent inspection of the skin for inflammation on the next day. P. aeruginosa LESB58 was grown to mid-log phase in dYT broth, washed twice in sterile PBS (Gibco, pH 7.4), and resuspended in PBS to ~1 x 10^8 CFU per 50 μL inoculum. The bacterial suspension (50 μL) was injected subcutaneously into the right side of the dorsum, followed one hour later by 50 μL of antibiotic treatment injected directly into the infected area. […] Combination treatments were administered as a single 50 μL injection containing both antibiotics. The concentration of each antibiotic in the combination was the same as when it was used alone. Progression of the infection was monitored daily, and abscess dimensions were measured on day three using a calliper. On day three, abscess tissue and pus were excised, homogenized in sterile PBS using SPEX SamplePrep 1600 MiniG for five minutes and bacterial CFU counts determined by serial dilution. In this model, synergy was defined as being a significant difference between the combination treated group and the amalgamated group of single drug treated animals ([Fantin and Carbon, 1992]; [Pletzer et al., 2018]).
Statistical analysis was performed using GraphPad Prism 9.5.1. Bacterial CFU and abscess size data from in vivo experiments was analysed by Kruskal-Wallace test with Dunn’s correction for multiple comparisons. The data was considered significant when p-values were below 0.05 or 0.01 as indicated.

[5] = 50 μL injected subcutaneously, skin inspected next day
[6] = LESB58, read-out: MIC in MHB, MHB, 20-24 h
[7] = LESB58, read-out: MIC in TCM, TCM (DMEM + 1% glucose + 5% FBS), 20-24 h
[8] = tigecycline and tobramycin groups, compared to the vehicle control, day 3

Row | SMILES | Fold change TCM vs MHB (MIC) (P. aeruginosa PAO1) | MIC (P. aeruginosa PAO1; read-out: MIC in MHB) | MIC (P. aeruginosa PAO1; read-out: MIC in TCM) | Fold change TCM vs MHB (MIC) (P. aeruginosa LESB58 [2]) | MIC (P. aeruginosa LESB58 [2]; [6]) | MIC (P. aeruginosa LESB58 [2]; [7]) | Fold decrease in CAZ MIC, drug combined with CAZ (P. aeruginosa LESB58 [3]) | Fold decrease in CZA MIC, drug combined with CZA (P. aeruginosa LESB58 [3]) | Fold decrease in other MIC, drug combined with CAZ (P. aeruginosa LESB58 [3]) | Fold decrease in other MIC, drug combined with CZA (P. aeruginosa LESB58 [3]) | FICI, drug combined with CAZ (P. aeruginosa LESB58 [3]) | Highest tolerated dose tested [1, 5] | further results
1 | C[C@@H](O)[C@H]1C(=O)N2C(C(=O)O)=C(S[C@@H]3CN[C@H](C(=O)N(C)C)C3)[C@H](C)[C@H]12 [MEM] |  |  |  |  |  |  |  |  |  |  |  |  | Toxic (visible skin irritation, inflammation, blood vessels, swelling) [1, 5]: 20 mg/mL; Highest tolerated dose tested ([1]; mouse, in vivo, sc): 10 mg/mL
2 | C[C@H]1[C@H](NC(=O)/C(=N\OC(C)(C)C(=O)O)c2csc(N)n2)C(=O)N1S(=O)(=O)O [ATM, aztreonam] | 1 | 12.5 µg/mL (≈ 28.7 µM) | 12.5 µg/mL (≈ 28.7 µM) | 8 | 62.5 µg/mL (≈ 144 µM) | 500 µg/mL | 2 | 2 | 4 | 4 | 0.75 | 25 mg/mL | FICI, drug combined with CZA (P. aeruginosa LESB58 [3]): 0.75
3 | C[C@]1(Cn2ccnn2)[C@H](C(=O)O)N2C(=O)C[C@H]2S1(=O)=O [Tazobactam] |  |  |  |  |  |  |  |  |  |  |  |  | Highest tolerated dose tested ([1]; female, Swiss Webster, mouse, in vivo, sc, 1 day): 25 mg/mL
4 | NC[C@H]1O[C@H](O[C@H]2[C@H](O)[C@@H](O[C@H]3O[C@H](CO)[C@@H](O)[C@H](N)[C@H]3O)[C@H](N)C[C@@H]2N)[C@H](N)C[C@@H]1O [TOB, tobramycin] | 40 | 0.625 µg/mL (≈ 1.34 µM) | 25 µg/mL (≈ 53.5 µM) | 20 | 3.13 µg/mL (≈ 6.69 µM) | 62.5 µg/mL | 4 | 4 | 8 | 8 | 0.38 |  | FICI, drug combined with CAZ (P. aeruginosa LESB58 [3]; listed as tobramycin): < 0.4; FICI, drug combined with CZA (P. aeruginosa LESB58 [3]; listed as tobramycin): < 0.4; Fold decrease in CAZ MIC, drug combined with CAZ (P. aeruginosa LESB58-lux; LESB58-lux): 8; Fold decrease in CZA MIC, drug combined with CZA (P. aeruginosa LESB58-lux; LESB58-lux): 2; Fold decrease in other MIC, drug combined with CAZ (P. aeruginosa LESB58-lux; LESB58-lux): 4; Fold decrease in other MIC, drug combined with CZA (P. aeruginosa LESB58-lux; LESB58-lux): 8; FICI, drug combined with CAZ (P. aeruginosa LESB58-lux; LESB58-lux): 0.38; FICI, drug combined with CZA (P. aeruginosa LESB58-lux; LESB58-lux): 0.63; FICI, drug combined with CAZ (P. aeruginosa LESB58-lux; LESB58-lux, listed as tobramycin): synergised; also recorded: retained; Area of dermoncecrosis, Mean (P. aeruginosa LESB58 [4]; tigecycline and tobramycin groups (shared vehicle, CAZ and CZA mice), female Swiss Webster mice, 50 μL s.c. 1 h after infection, day 3, CAZ or CZA 50, CST 1.25, TGC 2.5, TOB 2 mg/mL, vehicle 0.9% saline): 55.6 mm^2; Area of dermoncecrosis, % reduction (P. aeruginosa LESB58 [4]; [8]): 40.9%; CFU per abscess, Fold change (P. aeruginosa LESB58 [4]; [8]): -5.4; Area of dermoncecrosis, % reduction (P. aeruginosa LESB58 [4]; tigecycline and tobramycin groups, compared to the vehicle control, day 3, listed as tobramycin): 41%; CFU per abscess, Geometric mean (P. aeruginosa LESB58 [4]; tigecycline and tobramycin groups, day 3): 4.5 × 10^7 CFU per abscess; Fold reduction of bacterial load (CFU) relative to vehicle (P. aeruginosa LESB58 [4]; tigecycline, tobramycin experiments): ~5
5 | O=C(O)c1cn(C2CC2)c2cc(N3CCNCC3)c(F)cc2c1=O [CIP, ciprofloxacin] |  | 0.156 µg/mL (≈ 0.471 µM) | 1.25 µg/mL (≈ 3.77 µM) |  | 3.13 µg/mL (≈ 9.45 µM) | 50 µg/mL |  |  |  |  | 0.5 | 40 mg/mL | FICI, drug combined with CZA (P. aeruginosa LESB58 [3]): 0.5; Ceftazidime-avibactam MIC in combination with the named drug (P. aeruginosa LESB58-lux): 4 µg/mL; FICI, drug combined with CAZ (P. aeruginosa LESB58-lux; LESB58-lux): 0.63; FICI, drug combined with CZA (P. aeruginosa LESB58-lux; LESB58-lux): 0.63
6 | Cn1c(N)c(NC(=O)NCCN)c[n+]1CC1=C(C(=O)O)N2C(=O)[C@@H](NC(=O)/C(=N\OC(C)(C)C(=O)[O-])c3nsc(N)n3)[C@H]2SC1 [Ceftolozane] |  |  |  |  |  |  |  |  |  |  |  | 50 mg/mL | 
7 | CNC(C)C1CCC(N)C(OC2C(N)CC(N)C(OC3OCC(C)(O)C(NC)C3O)C2O)O1 (stereo not drawn) [GEN, gentamicin] | 16 | 1.56 µg/mL (≈ 3.27 µM) | 25 µg/mL (≈ 52.3 µM) | 20 | 25 µg/mL (≈ 52.3 µM) | 500 µg/mL | 8 | 8 | 8 | 8 | 0.25 | 20 mg/mL | Toxic (visible skin irritation, inflammation, blood vessels, swelling) [1, 5]: 40 mg/mL
